Test results reported in paper PMC10017700, “The SMARCA4^R1157W mutation facilitates chromatin remodeling and confers PRMT1/SMARCA4 inhibitors sensitivity in colorectal cancer” (NPJ Precision Oncology, 2023).

What was measured:
SMARCA2 and SMARCA4 = conditions: SMARCA bromodomain inhibitor; cited from earlier work
Excerpt: However, SMARCA2, another core subunit of the SWI/SNF complex with ATPase activity, also harbors a highly conserved HELICc domain (Supplementary Fig. 7a). […] It would be interesting to test whether other HELICc domain-containi ...

[1] = system: ATP (ATPase activity of SMARCA4); assay: ATPase kinetic assay (ATPase activity assay kit); type: biochemical
Method: An ATPase activity assay kit (#MAK113, Sigma,) was used to measure the Kinetic parameters (Vmax, Km, and Kcat) of SMARCA4 on ATP. In detail, SMARCA4-WT and -R1157W mutant proteins were incubated with saturating amounts of plasmid DNA and various concentrations of ATP. Reaction rates were determined by quantitating the fraction of ATP hydrolyzed at multiple time points. Kinetic parameters were determined by fitting the initial rate data to the Michaelis–Menten equation using the Origin software. All reactions were performed in triplicate.

[2] = system: SMARCA4-R1157W mutant HCT116 cell line-derived xenograft; assay: CDX mouse model, SMARCA4-R1157W; type: in vivo, BALB/c female nude mice; conditions: oral, 14 days
Method: (§1) To establish cell line-derived xenograft (CDX) mouse models, 6-week-old BALB/c female nude mice were obtained from the Model Animal Research Center of Nanjing University (Nanjing, China). All animal experimental procedures were approved by the Animal Ethical and Welfare Committee of Nanjing University. Approximately 5 × 10^6 SMARCA4 wild-type or R1157W mutant HCT116 cells were injected subcutaneously into the right flank of each mouse. The mice were randomized into 4 groups (6 mice/group) when the tumor volume reached approximately 80 mm^3 (volume = 0.52 × length × width^2), at which point drug dosing every day was initiated. GSK-PTi (GSK3368715, HY-128717A, MCE)[32] and BBAi-1 (BRM/BRG1 ATP inhibitor-1, HY-119374, MCE)[33] were dissolved in 10% DMSO, 90% saline (containing 20% SBE-β-CD). GSK-PTi (25 mg/kg) and BBAi-1 (2.5 mg/kg) were administered orally. Body weight and tumor volume of the mice were measured every two days. Treatments were continued for 14 days, after which all mice were euthanized for analysis. Tumor tissues were weighed and prepared for immunoblotting or immunohistochemical staining. Tumor growth inhibition (TGI) rate was measured using the formula: TGI (%) = [1−(Vt−V0 in treated group)/Vt−V0 in vehicle group)]×100 where Vt is the volume on each day and V0 is the volume at the beginning of the treatment.

[3] = system: SMARCA4-WT HCT116 cell line-derived xenograft; assay: CDX mouse model, SMARCA4-WT; type: in vivo, BALB/c female nude mice; conditions: oral, 14 days
Method: as §1

mononucleosomes = assay: Nucleosome sliding assay; type: biochemical; conditions: 60 or 90 min, 30 °C, 2 mM ATP, Fig. 4c
Method: The nucleosome sliding assay was performed as previously described with several modifications[41],[47]. A 255 bp DNA template from the Widom 601 positioning sequence[48] was assembled into mononucleosomes by the “salt jump” method in the presence of core histones isolated from HeLa cells. Mononucleomes (100 ng DNA) were incubated with wild-type or mutant SMARCA4 proteins (100 ng) in 40 μl reactions containing 20 mM HEPES–NaOH (pH 7.9), 50 mM MgCl2, 1 mM DTT, 0.1 mM PMSF, 0.1 mg/ml BSA, 3% glycerol, 0.02% NP-40, 0.02% Triton X-100, 2 mM ATP at 30 °C for 0, 30, 60, or 90 min. Reactions were quenched by the addition of 20 mM EDTA and 1% glycerol. Samples were resolved by 6% native polyacrylamide/0.5×TBE gel electrophoresis and visualized by SYBR green staining (Invitrogen).

[4] = system: ATP (ATPase activity of SMARCA4); assay: ATPase assay, γ-32P ATP thin-layer chromatography; type: biochemical; conditions: in the presence of DNA, TLC, 30 °C, 0-90 min, Fig. 4b
Method: The ATPase assays were performed as described previously with modifications. The 20 μl reactions contained 50 mM Tris (pH 7.5), 50 mM NaCl, 8 mM MgCl2, 0.5 mM PMSF, 2 mM ATP, 2 mM DTT, and 1 μg of a 1 kb DNA fragment. The reaction was initiated by adding 1 μl of 10 mCi/ml [γ-^32P] ATP (3000 Ci/mmole; PerkinElmer) and 1 μg of SMARCA4 wild-type or mutant proteins. The reactions were then incubated at 30 °C for the indicated times (0, 15, 30, 60, and 90 min) and were stopped by the addition of 5 μl of 500 mM EDTA. One microliter of the reaction mixture was spotted onto PEI-cellulose TLC plates (Merck), and chromatography was run in 0.5 M LiCl, 1 M formic acid. The ratio of inorganic phosphate to ATP at each time point was quantified using a Molecular Dynamics Phosphorimager (Amersham Biosciences) and ImageQuant TL software.

[5] = over 2-fold higher, Supplementary Fig. 5c, d
[6] = GSK-PTi 25 mg/kg and/or BBAi-1 2.5 mg/kg, daily, 6 mice/group
[7] = saturating plasmid DNA, various ATP concentrations, Michaelis–Menten fit, triplicate, mean ± SD

O=C(/C=C/N1C[C@H]2C[C@@H]1CN2c1ccccn1)c1ccccc1O [PFI-3]
differentiation between SMARCA2 and SMARCA4 (SMARCA2 and SMARCA4): could not differentiate between SMARCA2 and SMARCA4

SMARCA4-WT mutant: as printed; probably misprint for SMARCA4-R1157W mutant protein
Kcat relative to SMARCA4-WT protein [1, 5]: over 2 fold
Vmax relative to SMARCA4-WT protein [1, 5]: over 2 fold

CCOCC1(COCC)CCC(c2[nH]ncc2CN(C)CCNC)CC1 [GSK-PTi]
tumor growth inhibition (TGI) rate [2, 6]: 45.3%
therapeutic effect of daily single treatment (versus SMARCA4-WT CDX) [2]: better therapeutic effect
effect in SMARCA4-R1157W mutant versus SMARCA4-WT model mice ([2]; daily, comparison of the two model mouse groups): no statistically significant differences
tumor growth inhibition (TGI) rate [3, 6]: 23%
therapeutic effect of daily single treatment [3]: moderate therapeutic effect

SMARCA4-R1157W: R1157W mutant SMARCA4 protein
Kcat / Km ([1]; saturating plasmid DNA, various ATP concentrations): 17.47 M⁻¹ s⁻¹
Kcat [1, 7]: 0.00242 ± 6.7e-05 s⁻¹
Km [1, 7]: 138 ± 17.4 µM
Vmax [1, 7]: 241.6 ± 8.16 mM/min/mg
lateral sliding of centrally positioned nucleosomes compared to SMARCA4-WT (mononucleosomes): further catalyzed lateral sliding of centrally positioned nucleosomes
ATPase activity compared to SMARCA4-WT [4]: significantly augmented
